Values after ≈ are worked out from the molar mass of the structure shown.
Legend:
Rv0678_2 mutant = format: cell-based, Mycobacterium tuberculosis
Rv0678_J4 mutant = format: cell-based, Mycobacterium tuberculosis

In the case of `CCc1nc2ccc(Cl)cn2c1C(=O)NCc1ccc(N2CCC(c3ccc(OC(F)(F)F)cc3)CC2)cc1` [Telacebec, telacebec], the MIC (Rv0678_2 mutant) is reported as 8 ng/mL (≈ 0.0144 µM) and the MIC (Rv0678_J4 mutant) is reported as 4 ng/mL (≈ 0.00718 µM).
